# Earlier results, collected in paper PMC2853223 (ACS chemical biology, 2009).
# Tested on: DEBS 3
# Settings: mismatched PikAII/DEBS 3 pairing
substance,measurement,value
"PiKAII: pikromycin PKS protein PikAII, paired with DEBS 3 in vivo",association and transfer with DEBS 3 in vivo,productive association and transfer
